{"source": "patent US12383556B2", "about": "“Methods of treating Sjögren's syndrome using a Bruton's tyrosine kinase inhibitor” (NOVARTIS AG, priority 2019, dated 2025)", "key": {"BTK [1]": {"tested_on": "BTK", "test": "BTK occupancy ex vivo immunoassay (biotinylated BTK probe) in tissues after oral dosing", "set-up": "species or system rat", "settings": "spleen of rodents", "method": "(§1) The in vivo PD effects of an irreversible BTK inhibitor like compound (I) are determined by the extent and duration of covalent BTK occupancy by the inhibitor. BTK occupancy after treatment with Compound of Formula (I) (also referenced to as Compound (I)) was measured in an ex vivo immunoassay. The fraction of unoccupied BTK protein was assayed after in vitro incubation with a covalent biotinylated BTK probe, since compound (I) and the probe bind to BTK in a mutually exclusive manner. Unoccupied BTK, as well as total BTK relative protein levels were determined in lysates of selected tissues and levels of unoccupied BTK were normalized to total BTK protein levels in the same samples.\n(§2) From the experimental data it was apparent that a short transient systemic exposure of compound (I) is sufficient to achieve full BTK occupancy in several tissues at low oral doses of 1-3 mg/kg. […] This very low and transient systemic exposure is consistent with the PK/PD model typical of irreversible inhibitors.\n(§3) The duration of BTK occupancy was determined in rats and mice after single oral dose of compound (I) for spleen, blood, lymph nodes and lung. […] The longer persistence of BTK occupancy in blood has been reported before (Advani et al 2013, J Clin Onc; 31(1):88-94)."}, "BTK [2]": {"target": "T1, BTK (Rattus norvegicus, UniProt Q5S255)", "T1 construct": "total BTK relative protein levels were determined in lysates of selected tissues; from tissue; host or cells: rat spleen, blood, lymph nodes, lung (lysates)", "T1 sequence (Q5S255 1-660)": "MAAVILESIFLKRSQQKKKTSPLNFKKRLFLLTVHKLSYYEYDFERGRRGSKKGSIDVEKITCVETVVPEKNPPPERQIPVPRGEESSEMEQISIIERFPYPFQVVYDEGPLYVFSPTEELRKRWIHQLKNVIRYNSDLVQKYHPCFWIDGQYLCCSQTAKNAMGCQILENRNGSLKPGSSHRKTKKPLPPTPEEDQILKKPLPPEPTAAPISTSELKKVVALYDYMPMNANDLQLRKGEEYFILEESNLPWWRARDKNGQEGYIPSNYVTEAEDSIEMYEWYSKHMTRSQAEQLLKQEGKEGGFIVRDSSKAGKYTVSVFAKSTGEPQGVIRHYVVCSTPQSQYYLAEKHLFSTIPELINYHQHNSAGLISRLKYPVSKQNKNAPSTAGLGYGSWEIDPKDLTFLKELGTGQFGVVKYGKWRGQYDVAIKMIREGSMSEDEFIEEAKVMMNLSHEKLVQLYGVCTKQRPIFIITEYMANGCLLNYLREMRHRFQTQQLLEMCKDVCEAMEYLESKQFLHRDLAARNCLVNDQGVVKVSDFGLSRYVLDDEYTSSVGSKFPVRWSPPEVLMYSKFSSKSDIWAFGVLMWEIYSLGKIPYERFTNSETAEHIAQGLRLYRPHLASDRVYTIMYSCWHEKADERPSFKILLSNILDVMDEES", "test": "BTK occupancy ex vivo immunoassay (biotinylated BTK probe) in tissues after oral dosing", "method": "as §1, §2, §3"}, "[3]": {"test": "First-in-human Part 3 food effect PK, single 60 mg dose", "format": "in vivo", "settings": "for Tmax / AUC(0-t): human, oral, 60 mg", "from_the_text": "First-in-human study in up to approximately 168 healthy volunteers (HVs), of which 64 (in Parts 2 & 4) had asymptomatic atopic diathesis. • Part 1 was a double-blind (subject and investigator blind, sponsor unblinded), placebo-controlled single ascending dose (SAD) escalation study of 10 cohorts (N=80) • Part 2 was a double-blind (subject and investigator blind, sponsor unblinded), placebo-controlled multiple ascending dose (MAD) (13 doses over 12 days) escalation study employing once daily dosing in 6 cohorts in healthy volunteers with asymptomatic atopic diathesis (N=48) • Part 3 was a single dose open-label crossover food effect study in 12 HVs • Part 4 was a double-blind (subject and investigator blind, sponsor unblinded), placebo-controlled multiple dose (25 doses over 12 days) study employing twice daily dosing in 2 cohorts of healthy volunteers with asymptomatic atopic diathesis (N=16)\nPart 3 was an open-label, randomized, two-way cross-over, single dose study to assess food effects. In Part 3, each subject participated in a 28 day screening period (Day −29 to −2), 2 baseline (Day −1) and 2 treatment periods, each consisting of a single dose administration on Day 1 followed by safety and PK assessment up to Day 5. Treatment period 2 consisted of a follow-up visit and an end of study evaluation on Day 22 and 40, respectively. The two treatment periods were separated by a wash-out period of at least 18 days (+/−1 day).\nSubjects were randomized to one of the 2 treatment sequences in the ratio of 1:1:\nPharmacokinetic samples were obtained in blood and evaluated in all subjects at all dose levels. The samples from placebo subjects were not analyzed. The samples for PK assessments from subjects were collected at time points defined in the study. Compound (I) concentrations were determined in blood by a validated LC-MS/MS method."}, "[4]": {"test": "Blood exposure of compound (I) after oral dose in rats", "format": "in vivo", "settings": "female, rat, 1 mg/kg dose", "method": "as §2"}, "[5]": {"settings": "single dose 60 mg, FAST, Geomean"}, "[6]": {"settings": "single dose 60 mg, FED, Geomean"}}, "note": "Like-named read-outs stand apart in the source and are kept apart here."}
{"molecule": "C=CC(=O)N(C)CCOc1c(N)ncnc1-c1cc(F)cc(NC(=O)c2ccc(C3CC3)cc2F)c1C", "note": "[Compound of Formula (I), N-(3-(6-Amino-5-(2-(N-methylacrylamido)ethoxy)pyrimidin-4-yl)-5-fluoro-2-methylphenyl)-4-cyclopropyl-2-fluorobenzamide]", "values": [{"measurement": "BTK turnover in tissue (spleen)", "setting": "BTK [1]", "result": "approximately 5 hours"}, {"measurement": "BTK occupancy in blood", "setting": "BTK [2]; female rats, single oral dose", "result": "consistent with those observed in spleen"}, {"measurement": "spleen BTK occupancy", "setting": "BTK [2]; female rats, single oral dose 3 mg/kg", "result": "full"}, {"measurement": "receptor occupancy at 0.3 mg/kg", "setting": "BTK [2]; rat, female rats, single oral dose 0.3 mg/kg, read-out: spleen BTK occupancy", "result": 30, "unit": "%"}, {"measurement": "receptor occupancy at 1 mg/kg", "setting": "BTK [2]; rat, female rats, single oral dose 1 mg/kg, read-out: spleen BTK occupancy", "result": "76 to 81", "unit": "%"}, {"measurement": "BTK occupancy half-life in blood", "setting": "BTK [2]; rats, single oral dose", "result": "approximately 87 hours"}, {"measurement": "BTK occupancy half-life in spleen", "setting": "BTK [2]; rats, single oral dose", "result": "approximately 5 hours"}, {"measurement": "Tmax", "setting": "[3]; blood, fasted, read-out: mean Tmax", "result": 1, "unit": "h"}, {"measurement": "Tmax", "setting": "[3]; blood, fed, read-out: mean Tmax", "result": "> 3", "unit": "h"}, {"measurement": "AUC(0-t)", "setting": "[3]; blood, single dose 60 mg, FAST, Geomean, read-out: AUC0-24", "result": 182, "unit": "ng·h/mL"}, {"measurement": "AUC(0-t)", "setting": "[3]; blood, single dose 60 mg, FAST, Geomean, read-out: AUClast", "result": 177, "unit": "ng·h/mL"}, {"measurement": "AUC(0-t)", "setting": "[3]; blood, single dose 60 mg, FAST, Mean, read-out: AUC0-24", "result": 202, "unit": "ng·h/mL"}, {"measurement": "AUC(0-t)", "setting": "[3]; blood, single dose 60 mg, FAST, Mean, read-out: AUClast", "result": 196, "unit": "ng·h/mL"}, {"measurement": "Tmax", "setting": "[3]; blood, single dose 60 mg, FED, Geomean, read-out: Tmax", "result": 3.18, "unit": "h"}, {"measurement": "Tmax", "setting": "[3]; whole blood, single dose 60 mg, FAST, Geomean, read-out: Tmax", "result": 0.95, "unit": "h"}, {"measurement": "Tmax", "setting": "[3]; whole blood, single dose 60 mg, FAST, Mean, read-out: Tmax", "result": 1.02, "unit": "h"}, {"measurement": "AUC(0-t)", "setting": "[3]; whole blood, single dose 60 mg, FED, Geomean, read-out: AUC0-24", "result": 249, "unit": "ng·h/mL"}, {"measurement": "AUC(0-t)", "setting": "[3]; whole blood, single dose 60 mg, FED, Mean, read-out: AUC0-24", "result": 264, "unit": "ng·h/mL"}, {"measurement": "AUC(0-t)", "setting": "[3]; whole blood, single dose 60 mg, FED, Mean, read-out: AUClast", "result": 252, "unit": "ng·h/mL"}, {"measurement": "Tmax", "setting": "[3]; whole blood, single dose 60 mg, FED, Mean, read-out: Tmax", "result": 3.42, "unit": "h"}, {"measurement": "Cmax", "setting": "[3]; [5]", "result": 100.95, "unit": "ng/mL"}, {"measurement": "Tlast", "setting": "[3]; [5]", "result": 9.66, "unit": "h"}, {"measurement": "Cmax", "setting": "[3]; single dose 60 mg, FAST, Mean", "result": 114.81, "unit": "ng/mL"}, {"measurement": "Tlast", "setting": "[3]; single dose 60 mg, FAST, Mean", "result": 10.50, "unit": "h"}, {"measurement": "AUClast", "setting": "[3]; [6]", "result": 237.84, "unit": "ng·h/mL"}, {"measurement": "Cmax", "setting": "[3]; [6]", "result": 80.86, "unit": "ng/mL"}, {"measurement": "Tlast", "setting": "[3]; [6]", "result": 9.25, "unit": "h"}, {"measurement": "Cmax", "setting": "[3]; single dose 60 mg, FED, Mean", "result": 83.39, "unit": "ng/mL"}, {"measurement": "Tlast", "setting": "[3]; single dose 60 mg, FED, Mean", "result": 9.50, "unit": "h"}, {"measurement": "higher AUC0-24 fed vs fasted", "setting": "[3]; single oral dose 60 mg", "result": 1.4, "unit": "fold"}, {"measurement": "lower Cmax fed vs fasted", "setting": "[3]; single oral dose 60 mg", "result": 1.25, "unit": "fold"}, {"measurement": "concentration at 0.5 h", "setting": "[4]; 0.5 hours post dose", "result": 49.1, "unit": "nM"}, {"measurement": "concentration at 5 h", "setting": "[4]; 5 hours post dose", "result": 5.6, "unit": "nM"}]}
